Test results: PubChem BioAssay AID248 (DTP/NCI, 2004)
Several values for one entry are separate records, joined by “and”; a condition that tells them apart may be missing. Equal entries are not always repeated. Toxic doses and inconclusive results are not listed. No stated cut-off is given here; in the data, active means T/C of 150% or more; inactive means T/C below 125%.

System: L1210 leukemia ip in BDF1 mice, survival T/C
Experiment: NCI In Vivo Anticancer Drug Screen. Data for tumor model L1210 Leukemia (intraperitoneal) in B6D2F1 (BDF1) mice
Conditions: endpoint: mean survival time, higher = longer survival
How it was run: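 Survival endpoint. Drug-treated group vs vehicle group, expressed as T divided by C. Tumor passaged by transplantation.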

[1] = dose: 100.0 mg/kg/injection, schedule: Q01DX009 (ip), vehicle: saline sonified
[2] = dose: 200.0 mg/kg/injection, schedule: Q01DX009 (ip), vehicle: saline sonified
[3] = dose: 50.0 mg/kg/injection, schedule: Q04DX002 (ip), vehicle: Klucel (hydroxypropylcellulose) (HPC)
[4] = dose: 100.0 mg/kg/injection, schedule: Q04DX002 (ip), vehicle: Klucel (hydroxypropylcellulose) (HPC)
[5] = dose: 200.0 mg/kg/injection, schedule: Q04DX002 (ip), vehicle: Klucel (hydroxypropylcellulose) (HPC)
[6] = dose: 100.0 mg/kg/injection, schedule: Q01DX009 (ip), vehicle: saline
[7] = dose: 200.0 mg/kg/injection, schedule: Q01DX009 (ip), vehicle: saline
[8] = dose: 400.0 mg/kg/injection, schedule: Q01DX009 (ip), vehicle: saline
[9] = dose: 100.0 mg/kg/injection, schedule: Q01DX009 (ip), vehicle: Klucel (hydroxypropylcellulose) (HPC)
[10] = dose: 100.0 mg/kg/injection, schedule: Q04DX003 (ip), vehicle: Klucel (hydroxypropylcellulose) (HPC)
[11] = dose: 200.0 mg/kg/injection, schedule: Q01DX009 (ip), vehicle: Klucel (hydroxypropylcellulose) (HPC)
[12] = dose: 200.0 mg/kg/injection, schedule: Q04DX003 (ip), vehicle: Klucel (hydroxypropylcellulose) (HPC)
[13] = dose: 400.0 mg/kg/injection, schedule: Q01DX009 (ip), vehicle: Klucel (hydroxypropylcellulose) (HPC)
[14] = dose: 400.0 mg/kg/injection, schedule: Q04DX003 (ip), vehicle: Klucel (hydroxypropylcellulose) (HPC)
[15] = dose: 100.0 mg/kg/injection, schedule: Q04DX003 (ip), vehicle: saline
[16] = dose: 200.0 mg/kg/injection, schedule: Q04DX003 (ip), vehicle: saline
[17] = dose: 400.0 mg/kg/injection, schedule: Q04DX003 (ip), vehicle: saline
[18] = dose: 100.0 mg/kg/injection, schedule: Q01DX001 (ip), vehicle: carboxymethylcellulose (CMC)
[19] = dose: 200.0 mg/kg/injection, schedule: Q01DX001 (ip), vehicle: carboxymethylcellulose (CMC)
[20] = dose: 400.0 mg/kg/injection, schedule: Q01DX001 (ip), vehicle: carboxymethylcellulose (CMC)
[21] = dose: 100.0 mg/kg/injection, schedule: Q01DX001 (ip), vehicle: saline
[22] = dose: 200.0 mg/kg/injection, schedule: Q01DX001 (ip), vehicle: saline
[23] = dose: 400.0 mg/kg/injection, schedule: Q01DX001 (ip), vehicle: saline

Measured: T/C

CC1(O)c2ccccc2-c2nc3ccccc3nc21 (configuration not stated)
inactive: dose: 50.0 mg/kg/injection, schedule: Q01DX009 (ip), vehicle: saline sonified 89 % of control | [1] 102 % of control | dose: 100.0 mg/kg/injection, schedule: Q04DX003 (ip), vehicle: saline sonified 94 % of control | [2] 102 % of control | dose: 200.0 mg/kg/injection, schedule: Q04DX003 (ip), vehicle: saline sonified 110 % of control | dose: 400.0 mg/kg/injection, schedule: Q04DX003 (ip), vehicle: saline sonified 87 % of control

S=C(Nc1ccc(Cl)c(Cl)c1)SCc1ccccc1
inactive: dose: 75.0 mg/kg/injection, schedule: Q04DX003 (ip), vehicle: saline 101 % of control | dose: 150.0 mg/kg/injection, schedule: Q04DX003 (ip), vehicle: saline 104 % of control | dose: 300.0 mg/kg/injection, schedule: Q04DX003 (ip), vehicle: saline 101 % of control

O=[N+]([O-])c1ccc(N/N=C(\c2ccccc2)C2CCC2)c([N+](=O)[O-])c1
inactive: [3] 99 % of control | [4] 96 % of control | [5] 96 % of control

COC(=O)C(N)Cc1ccc(OC(c2ccccc2)(c2ccccc2)c2ccccc2)cc1 (configuration not stated)
inactive: dose: 50.0 mg/kg/injection, schedule: Q01DX009 (ip), vehicle: saline 101 % of control | [6] 103 % of control | [7] 100 % of control | [8] 100 % of control

COc1ccc(NC(=S)Nc2ccc(OC)cc2)cc1
inactive: [9] 101 % of control | [10] 103 % of control | [11] 105 % of control | [12] 103 % of control | [13] 92 % of control | [14] 94 % of control

OCC(CO)(CO)CBr
inactive: [6] 96 % of control | [15] 103 % of control | [7] 105 % of control | [16] 98 % of control | [8] 104 % of control | [17] 104 % of control

O=C1OCC/C1=C1\CCCO1
inactive: dose: 100.0 mg/kg/injection, schedule: Q01DX009 (ip), vehicle: saline with Tween-80 93 % of control | dose: 200.0 mg/kg/injection, schedule: Q01DX009 (ip), vehicle: saline with Tween-80 100 % of control | dose: 400.0 mg/kg/injection, schedule: Q01DX009 (ip), vehicle: saline with Tween-80 96 % of control

O=C(COc1ccccc1)NCCO
inactive: [9] 110 % of control | [10] 100 % of control | [11] 103 % of control | [12] 97 % of control | [13] 111 % of control | [14] 102 % of control

O=C(Nc1ccc2ccccc2c1)c1ccc(F)cc1
inactive: [9] 97 % of control | [11] 102 % of control | [13] 94 % of control

O=c1[nH]c(CCCc2ccccc2)c(Br)c(=O)[nH]1
inactive: [4] 100 % of control | [5] 100 % of control | dose: 400.0 mg/kg/injection, schedule: Q04DX002 (ip), vehicle: Klucel (hydroxypropylcellulose) (HPC) 92 % of control

Cc1nc(N)[nH]c(=O)c1CCCNS(=O)(=O)c1ccc(C(=O)CBr)cc1
inactive: [18] 93 % of control | [19] 87 % of control | [20] 96 % of control

C/C(CNc1nc(N)nc(N)c1N=Nc1ccc(Cl)cc1)=N\NC(N)=O
inactive: [21] 94 % of control | [22] 98 % of control | [23] 94 % of control

CSc1ccc(-c2nc3ncnc(N)c3[nH]2)cc1
inactive: dose: 25.0 mg/kg/injection, schedule: Q01DX001 (ip), vehicle: gum acacia 95 % of control | dose: 50.0 mg/kg/injection, schedule: Q01DX001 (ip), vehicle: gum acacia 93 % of control

c1cc[c]([Sn]([S]c2ccccn2)([c]2ccccc2)[c]2ccccc2)cc1
inactive: dose: 6.25 mg/kg/injection, schedule: Q04DX002 (ip), vehicle: saline with Tween-80 93 % of control | dose: 12.5 mg/kg/injection, schedule: Q04DX002 (ip), vehicle: saline with Tween-80 93 % of control | dose: 25.0 mg/kg/injection, schedule: Q04DX002 (ip), vehicle: saline with Tween-80 108 % of control

CCCC(C)C(=O)c1ccccc1 (configuration not stated)
inactive: [9] 96 % of control | [10] 103 % of control | [11] 93 % of control | [12] 110 % of control | [13] 96 % of control | [14] 108 % of control

O=C1c2cccc3cc([N+](=O)[O-])cc(c23)C(=O)N1C(CO)(CO)CO
inactive: dose: 100.0 mg/kg/injection, schedule: Q04DX002 (ip), vehicle: saline 101 % of control | dose: 200.0 mg/kg/injection, schedule: Q04DX002 (ip), vehicle: saline 101 % of control | dose: 400.0 mg/kg/injection, schedule: Q04DX002 (ip), vehicle: saline 99 % of control

O=C(CC(=O)c1ccccc1)Nc1ccccc1
inactive: dose: 100.0 mg/kg/injection, schedule: Q01DX001 (ip), vehicle: gum acacia 103 % of control and 104 % of control | dose: 100.0 mg/kg/injection, schedule: Q01DX009 (ip), vehicle: gum acacia 95 % of control and 104 % of control | dose: 100.0 mg/kg/injection, schedule: Q04DX002 (ip), vehicle: gum acacia 100 % of control and 88 % of control | dose: 100.0 mg/kg/injection, schedule: Q04DX003 (ip), vehicle: gum acacia 96 % of control and 91 % of control | dose: 200.0 mg/kg/injection, schedule: Q01DX001 (ip), vehicle: gum acacia 96 % of control and 97 % of control | dose: 200.0 mg/kg/injection, schedule: Q01DX009 (ip), vehicle: gum acacia 92 % of control | dose: 200.0 mg/kg/injection, schedule: Q04DX002 (ip), vehicle: gum acacia 98 % of control and 90 % of control | dose: 200.0 mg/kg/injection, schedule: Q04DX003 (ip), vehicle: gum acacia 96 % of control and 88 % of control | dose: 400.0 mg/kg/injection, schedule: Q01DX001 (ip), vehicle: gum acacia 92 % of control and 93 % of control | dose: 400.0 mg/kg/injection, schedule: Q01DX009 (ip), vehicle: gum acacia 102 % of control | dose: 400.0 mg/kg/injection, schedule: Q04DX002 (ip), vehicle: gum acacia 94 % of control and 91 % of control | dose: 400.0 mg/kg/injection, schedule: Q04DX003 (ip), vehicle: gum acacia 93 % of control and 94 % of control

COc1ccc(C(=C(CC(=O)O)C(=O)OC(C)(C)C)c2ccc(OC)c(OC)c2)cc1OC
inactive: [18] 96 % of control | dose: 100.0 mg/kg/injection, schedule: Q01DX009 (ip), vehicle: carboxymethylcellulose (CMC) 91 % of control | [19] 97 % of control | dose: 200.0 mg/kg/injection, schedule: Q01DX009 (ip), vehicle: carboxymethylcellulose (CMC) 95 % of control | [20] 94 % of control | dose: 400.0 mg/kg/injection, schedule: Q01DX009 (ip), vehicle: carboxymethylcellulose (CMC) 91 % of control | dose: 600.0 mg/kg/injection, schedule: Q01DX009 (ip), vehicle: carboxymethylcellulose (CMC) 91 % of control

CC/C(=N/OC(=O)N(C)C)c1ccccc1
inactive: [21] 96 % of control | [22] 100 % of control | [23] 104 % of control

O=C(O)/C=C/S(=O)(=O)c1ccc(Cl)cc1
inactive: dose: 12.5 mg/kg/injection, schedule: Q04DX002 (ip), vehicle: Klucel (hydroxypropylcellulose) (HPC) 101 % of control | dose: 25.0 mg/kg/injection, schedule: Q01DX009 (ip), vehicle: Klucel (hydroxypropylcellulose) (HPC) 97 % of control | dose: 25.0 mg/kg/injection, schedule: Q04DX002 (ip), vehicle: Klucel (hydroxypropylcellulose) (HPC) 97 % of control | dose: 50.0 mg/kg/injection, schedule: Q01DX009 (ip), vehicle: Klucel (hydroxypropylcellulose) (HPC) 97 % of control | [3] 108 % of control | [4] 95 % of control

C/C(CC(c1ccccc1)N1CCc2ccccc2C1)=N/O (configuration not stated)
inactive: [1] 94 % of control | [15] 105 % of control | [2] 94 % of control | [16] 104 % of control | dose: 400.0 mg/kg/injection, schedule: Q01DX009 (ip), vehicle: saline sonified 90 % of control | [17] 112 % of control
